Columns and labels:
bladder of normal rats = conditions: cited from earlier work
[1] = test system: rat spinal cord injury model of overactive bladder; conditions: cited from earlier work
[2] = test system: bladder function of wild type (WT) and EP1 knockout (EP1KO) mice; assay: Cystometry in conscious mice under intravesical instillation of PGE2; format: in vivo, mouse; conditions: intravesical instillation of PGE2 (20 μM)
Method: Animals: Age-matched female EP1 knockout (EP1KO) mice (DBA/1LacJ background) (n=13) and DBA/1LacJ wild type (WT) controls (n=12) were used for the studies. The knockout mice originated from Groton Laboratories, Pfizer Research and Development, the wild type from the Jackson Laboratories, USA. Both strains were delivered through Charles River Laboratories, UK. After arrival, the mice were housed for 6 weeks under identical conditions under a 12 hours light/dark photocycle, food and water were provided ad libitum. The experimental protocol was approved by the Animals Ethics Committee, Lund University.
The knockout and WT mice were randomly divided into 3 groups each. One third received bladder outlet obstruction (BOO) as described below, one third received sham surgery. The remaining mice served as unoperated controls.
At day 5 after the obstruction a polyethylene catheter (PE, ID 0.38 mm, OD 0.61 mm) with a small cuff was inserted in the bladder dome and secured with a purse-string suture (7-0 silk). The obstructing ligature remained in place. The catheter was tunneled subcutaneously, led out on the back of the neck, and surgically secured. Control animals received the bladder catheter 2 days prior to cystometry.
Cystometry: Two days after insertion of the catheter (7 days after creation of the obstruction), the cystometric investigation was performed without any anesthesia or restraint. The mice were placed into a metabolic cage (Gazzada, Buguggiatade, Italy). The bladder catheter was connected to a pressure transducer, which in turn was connected to a Grass® 7E Polygraph recorder. The bladder was continuously filled with saline at room temperature by means of a microinjecton pump (CMA 100, Carnegie Medicine, Solna, Sweden), at a filling speed of 25 μl/min.
The amount of voided urine was measured by means of a fluid collector, connected to a force displacement transducer (FT 03 D; Grass instrument Co., MA, USA). After a stabilization period of 60-80 minutes, in which the bladder was continuously filled, reproducible voiding patterns were achieved and recorded over a period of 30 minutes. The following parameters were measured: Micturition interval (time between 2 voids), baseline pressure (lowest pressure between 2 voids), threshold pressure (pressure immediately before micturition was initiated), micturition pressure (maximum voiding pressure), and micturition volume. Residual urine was emptied manually 3 times at the end of the cystometry and measured. Bladder capacity was calculated as the amount of saline infused into the bladder between 2 voids, plus the average amount of residual urine.
The animals were continuously observed in order to distinguish between moving artifacts and non-voiding bladder contractions. The surface of the collecting-funnel under the grid of the metabolic cage was sprayed with a thin layer of silicone.
Drugs and solutions: PGE2 (Sigma Chemical Company, St. Louis, Mo., USA). PGE2 was dissolved in ethanol, and the stock solution was stored at a concentration of 10^−2 M at −70°. The final dilution of 20 μM was made in NaCl at the day of cystometry. (Normal Krebs solution was composed as following (mM): NaCl 119, KCl 4.6, CaCl2 1.5, MgCl2 1.2, NaHCO3 15, NaH2PO4 1.2, and glucose 11).
Data analysis: All values are reported as the mean±SEM. Statistical significance was determined by Student's t-test and Bonferroni correction as appropriate. P<0.05 was required for statistical significance.

human bladder = conditions: human volunteers, intravesical administration; cited from earlier work
rat bladder = conditions: rats, topical administration; cited from earlier work

In the case of `CC(=O)NNC(=O)N1Cc2ccccc2Oc2ccc(Cl)cc21` [SC-19220], the bladder capacity (bladder of normal rats) is listed as “increased bladder capacity”.
In the case of `Cc1cc(Cl)ccc1S(=O)(=O)NC[C@H]1C2CCC(CC2)[C@@H]1/C=C\CCCC(=O)O` [ONO-8711], the bladder overactivity [1] is given as “reduction in bladder overactivity”.
In the case of `CCCCC[C@H](O)/C=C/[C@H]1[C@H](O)CC(=O)[C@@H]1C/C=C\CCCC(=O)O` [PGE2, prostaglandin E2], the bladder capacity ([2]; EP1 KO control mice) is reported as “no effect”, the “induction of non-voiding contractions” value ([2]; EP1 KO control mice) is reported as “no induction of non-voiding contractions” and the micturition interval ([2]; EP1 KO control mice) is reported as “no effect”. For the same compound, the micturition volume ([2]; EP1 KO control mice) was “no effect”, the bladder capacity ([2]; WT control mice) was “decreased” and the micturition interval ([2]; WT control mice) was “decreased”. For the same compound, the micturition volume ([2]; WT control mice) was “decreased”, the non-voiding contractions ([2]; WT control mice) was “Frequent non-voiding contractions of high amplitude occurred” and the bladder capacity (human bladder) was “decreased bladder capacity”. The sensations of urgency (human bladder) was “gave rise to sensations of urgency” and the “bladder activity and reflex micturition” value (rat bladder) was “bladder hyperactivity and stimulation of reflex micturition”.

Source: patent US20050020646A1, “Treatment of BPH” (Pfizer Inc., priority 2003, published 2005)
